# ChEMBL document CHEMBL3046027, “In vitro and in vivo antifungal activity of synthetic pure isothiocyanates against Sclerotinia sclerotiorum” (Pest Manag Sci, 2011)
# Tests used:
# [1] = tested on: Sclerotinia sclerotiorum; assay: In vivo antifungal Sclerotinia sclerotiorum in Pepper (Capsicum annuum L. cv. Sera Demre) assessed as inhibition of mycelial growth in volatile phase at 168 umol/L measured after 10 to 14 weeks; type: functional
# [2] = tested on: Sclerotinia sclerotiorum; assay: In vivo antifungal Sclerotinia sclerotiorum in Pepper (Capsicum annuum L. cv. Sera Demre) assessed as inhibition of mycelial growth in volatile phase at 84 umol/L measured after 10 to 14 weeks; type: functional
# [3] = tested on: Sclerotinia sclerotiorum; assay: Antifungal activity against Sclerotinia sclerotiorum assessed as inhibition of mycelial growth in contact phase at 2508 umol/l measured at 20 degC after 5 days; type: functional; details: 120 h, read-out: GI
# [4] = tested on: Sclerotinia sclerotiorum; assay: Antifungal activity against Sclerotinia sclerotiorum assessed as inhibition of mycelial growth in contact phase at 1672 umol/l measured at 20 degC after 5 days; type: functional; details: 120 h, read-out: GI
# [5] = tested on: Sclerotinia sclerotiorum; assay: Antifungal activity against Sclerotinia sclerotiorum assessed as inhibition of mycelial growth in contact phase at 836 umol/l measured at 20 degC after 5 days; type: functional; details: 120 h, read-out: GI
# [6] = tested on: Sclerotinia sclerotiorum; assay: Antifungal activity against Sclerotinia sclerotiorum assessed as inhibition of mycelial growth in contact phase at 752 umol/l measured at 20 degC after 5 days; type: functional; details: 120 h, read-out: GI
# [7] = tested on: Sclerotinia sclerotiorum; assay: Antifungal activity against Sclerotinia sclerotiorum assessed as inhibition of mycelial growth in contact phase at 585 umol/l measured at 20 degC after 5 days; type: functional; details: 120 h, read-out: GI
# [8] = tested on: Sclerotinia sclerotiorum; assay: Fungistatic activity in Sclerotinia sclerotiorum assessed as inhibition of carpogenic germination in volatile phase at 836 umol/l measured at 20 degC after 5 days relative to control; type: functional; details: 120 h
# [9] = tested on: Sclerotinia sclerotiorum; assay: Fungistatic activity in Sclerotinia sclerotiorum assessed as inhibition of carpogenic germination in volatile phase at 418 umol/l measured at 20 degC after 5 days relative to control; type: functional; details: 120 h
# [10] = tested on: Sclerotinia sclerotiorum; assay: Fungistatic activity in Sclerotinia sclerotiorum assessed as inhibition of carpogenic germination in volatile phase at 84 umol/l measured at 20 degC after 5 days relative to control; type: functional; details: AT84, 120 h
# [11] = tested on: Sclerotinia sclerotiorum; assay: Fungistatic activity in Sclerotinia sclerotiorum assessed as inhibition of carpogenic germination in volatile phase at 42 umol/l measured at 20 degC after 5 days relative to control; type: functional; details: 120 h
# [12] = tested on: Sclerotinia sclerotiorum; assay: Antifungal activity against Sclerotinia sclerotiorum assessed as inhibition of mycelial growth in volatile phase at 836 umol/l measured at 20 degC after 5 days; type: functional; details: 120 h, read-out: GI
# [13] = tested on: Sclerotinia sclerotiorum; assay: Antifungal activity against Sclerotinia sclerotiorum assessed as inhibition of mycelial growth in volatile phase at 585 umol/l measured at 20 degC after 5 days; type: functional; details: 120 h, read-out: GI
# [14] = tested on: Sclerotinia sclerotiorum; assay: Antifungal activity against Sclerotinia sclerotiorum assessed as inhibition of mycelial growth in volatile phase at 418 umol/l measured at 20 degC after 5 days; type: functional; details: 120 h, read-out: GI
# [15] = tested on: Sclerotinia sclerotiorum; assay: Fungistatic activity in Sclerotinia sclerotiorum assessed as sclerotial viability measured at 20 degC after 5 days; type: functional, organism-based; details: 120 h
# [16] = tested on: Sclerotinia sclerotiorum; assay: Fungistatic activity in Sclerotinia sclerotiorum assessed as inhibition of mycelial growth in volatile phase measured at 20 degC after 5 days; type: functional, organism-based; details: 120 h
# [17] = tested on: Sclerotinia sclerotiorum; assay: Fungistatic activity in Sclerotinia sclerotiorum assessed as inhibition of mycelial growth in contact phase measured at 20 degC after 5 days; type: functional, organism-based; details: 120 h
# [18] = tested on: Sclerotinia sclerotiorum; assay: Fungistatic activity in Sclerotinia sclerotiorum assessed as viability in volatile phase at 418 umol/l measured at 20 degC after 5 days relative to control; type: functional; details: 120 h, read-out: GI
# [19] = tested on: Sclerotinia sclerotiorum; assay: Fungistatic activity in Sclerotinia sclerotiorum assessed as inhibition of mycelial growth in contact phase at 1672 umol/l measured at 20 degC after 5 days relative to control; type: functional; details: 120 h, read-out: GI
# [20] = tested on: Sclerotinia sclerotiorum; assay: Antifungal activity against Sclerotinia sclerotiorum assessed as inhibition of mycelial growth in volatile phase at 84 umol/l measured at 20 degC after 5 days; type: functional; details: 120 h, read-out: GI
# [21] = tested on: Sclerotinia sclerotiorum; assay: Antifungal activity against Sclerotinia sclerotiorum assessed as inhibition of mycelial growth in volatile phase at 42 umol/l measured at 20 degC after 5 days; type: functional; details: 120 h, read-out: GI
# [22] = tested on: Sclerotinia sclerotiorum; assay: Fungitoxic activity in Sclerotinia sclerotiorum assessed as inhibition of mycelial growth in contact phase at 2508 umol/l measured at 20 degC after 5 days relative to control; type: functional; details: 120 h
# [23] = tested on: Sclerotinia sclerotiorum; assay: Antifungal activity against Sclerotinia sclerotiorum assessed as inhibition of germination in volatile phase at 836 umol/l measured at 20 degC after 5 days; type: functional; details: 120 h
# [24] = tested on: Sclerotinia sclerotiorum; assay: Antifungal activity against Sclerotinia sclerotiorum assessed as inhibition of germination in volatile phase at 418 umol/l measured at 20 degC after 5 days; type: functional; details: 120 h
# [25] = tested on: Sclerotinia sclerotiorum; assay: Antifungal activity against Sclerotinia sclerotiorum assessed as inhibition of germination in volatile phase at 251 umol/l measured at 20 degC after 5 days; type: functional; details: 120 h
# [26] = tested on: Sclerotinia sclerotiorum; assay: Antifungal activity against Sclerotinia sclerotiorum assessed as inhibition of germination in volatile phase at 84 umol/l measured at 20 degC after 5 days; type: functional; details: AT84, 120 h
# [27] = tested on: Sclerotinia sclerotiorum; assay: Antifungal activity against Sclerotinia sclerotiorum assessed as inhibition of germination in volatile phase at 42 umol/l measured at 20 degC after 5 days; type: functional; details: 120 h
# [28] = tested on: Sclerotinia sclerotiorum; assay: Fungistatic activity in Sclerotinia sclerotiorum assessed as inhibition of mycelial growth in volatile phase at 836 umol/l measured at 20 degC after 5 days relative to control; type: functional; details: 120 h, read-out: GI
structure (smiles),measurement,setting,value
S=C=Nc1ccccc1 [PHENYLISOTHIOCYANATE],inhibition in vivo at 168 µM,[1],68.3%
same,inhibition in vivo at 84 µM,[2],61.7%
same,inhibition of growth at 2508 µM,[3],100%
same,inhibition of growth at 1672 µM,[4],100%
same,inhibition of growth at 836 µM,[5],65.5%
same,inhibition of growth at 752 µM,[6],23.7%
same,inhibition of growth at 585 µM,[7],5%
same,inhibition at 836 µM,[8],85%
same,inhibition at 418 µM,[9],52.5%
same,inhibition at 84 µM,[10],52.5%
same,inhibition at 42 µM,[11],12.5%
same,inhibition of growth at 836 µM,[12],100%
same,inhibition of growth at 585 µM,[13],74.2%
same,inhibition of growth at 418 µM,[14],70%
same,EC50,[15],192 µM
same,EC50,[16],134 µM
same,EC50,[17],802 µM
same,inhibition of growth at 418 µM,[18],100%
same,inhibition of growth at 1672 µM,[19],100%
same,inhibition of growth at 84 µM,[20],42.8%
same,inhibition of growth at 42 µM,[21],20.8%
same,inhibition at 2508 µM,[22],100%
same,inhibition at 836 µM,[23],100%
same,inhibition at 418 µM,[24],100%
same,inhibition at 251 µM,[25],46.7%
same,inhibition at 84 µM,[26],13.3%
same,inhibition at 42 µM,[27],6.7%
same,inhibition of growth at 836 µM,[28],100%
